How the values were obtained:
[1] = test system: patients with reduced DPD activity; conditions: patients with germline DPYD variants / reduced DPD activity, 5FU-related toxicity; cited from earlier work
[2] = test system: colorectal cancer patients; test: QUASAR 2 clinical trial: cardiovascular related adverse events under capecitabine; type: in vivo, human; conditions: stage II/III colorectal cancer patients administered capecitabine (alone or plus bevacizumab), most common events cardiac chest pain and angina
Experimental: QUASAR 2, a randomised controlled trial of capecitabine+bevacizumab has been described previously (Kerr, R. S., et al. Lancet Oncol, 2016. 17(11):1543-1557; and Rosmarin, D., et al. Gut, 2015. 64(1):111-20). Briefly, participants were stage II/stage III colorectal cancer patients with performance status 0/1 and normal renal function. Patients were randomly assigned (1:1) to receive eight 3-week cycles of oral capecitabine alone (1250 mg/m^2 twice daily for 14 days followed by a break for 7 days) or the same regimen of oral capecitabine plus 16 cycles of 7.5 mg/kg bevacizumab by intravenous infusion over 90 min on day 1 of each cycle. All patients consented for use of biological samples and medical records in research. Cardiovascular toxicity was confirmed by two independent clinicians reviewing patient case report forms.
3% of colorectal cancer patients administered with capecitabine as part of the QUASAR 2 clinical trial experienced cardiovascular related adverse events. The most commonly described events were cardiac chest pain and angina. The inventors performed a genome wide association study to identify genetic markers associated with cardiovascular adverse events under an additive genetic model. Given the rarity of cardiovascular toxicity, variants with a minor allele frequency (MAF)<10% were filtered out. […]

| Compound | patients with reduced DPD activity who experience cardiotoxicity [1] | patients who experienced cardiovascular related adverse events [2] [%] |
| --- | --- | --- |
| O=c1[nH]cc(F)c(=O)[nH]1 [5FU, 5-flurouracil] | 2-5% |  |
| CCCCCOC(=O)Nc1nc(=O)n(C2OC(C)C(O)C2O)cc1F (centres unmarked) [capecitabine, pentyl [1-(3,4-dihydroxy-5-methyltetrahydrofuran-2-yl)-5-fluoro-2-oxo-1H-pyrimidin-4-yl]carbamate] |  | 3 |

From patent publication US20260176700A1, “TOXICITY MARKER FOR 5-FLUOROURACIL” (Oxford University Innovation Limited, priority 2022, published 2026)
